Results taken from patent publication US20210395313A1, “PEPTIDE PAC1 ANTAGONISTS” (AMGEN INC., priority 2017, published 2021).
Where a SMILES comes first, the peptide text is derived from it. Bridges are numbered along the chain shown (N, C = ends). Where no end group is shown, it is not given here.

Columns and labels:
human PAC1 receptor = target: T1, human PAC1 receptor (Homo sapiens, UniProt P41586); assay: LANCE Ultra cAMP accumulation antagonist assay in SHSY-5Y cells; format: cell-based;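 also: inhibition of cAMP accumulation evoked by PAC1 agonist at its EC80 in SHSY-5Y cells endogenously expressing receptor, 30 min preincubation then 15 min agonist, TR-FRET readout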
T1 construct: SHSY-5Y (human neuroblastoma cell line) and RG-2 (rat glioma cell line) cells endogenously express human and rat PAC1 receptors, respectively; endogenous in cells; host or cells: SHSY-5Y human neuroblastoma cells
T1 sequence (P41586 21-468): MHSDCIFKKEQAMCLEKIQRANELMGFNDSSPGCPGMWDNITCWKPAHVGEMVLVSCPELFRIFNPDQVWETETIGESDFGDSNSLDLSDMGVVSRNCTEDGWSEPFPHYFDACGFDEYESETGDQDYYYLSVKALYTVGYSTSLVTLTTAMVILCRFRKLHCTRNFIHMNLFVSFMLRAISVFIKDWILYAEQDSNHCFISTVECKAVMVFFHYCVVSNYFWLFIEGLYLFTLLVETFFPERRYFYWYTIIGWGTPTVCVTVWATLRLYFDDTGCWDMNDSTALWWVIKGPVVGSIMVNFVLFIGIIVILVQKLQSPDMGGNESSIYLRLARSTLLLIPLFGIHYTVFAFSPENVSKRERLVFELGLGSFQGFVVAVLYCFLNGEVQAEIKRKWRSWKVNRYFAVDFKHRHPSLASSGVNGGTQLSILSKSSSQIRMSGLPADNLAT

rat PAC1 receptor = target: T2, rat PAC1 receptor (Rattus norvegicus, UniProt P32215); assay: LANCE Ultra cAMP accumulation antagonist assay in RG-2 cells; format: cell-based;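 also: RG-2 rat glioma cells endogenously expressing PAC1, test peptide preincubated 30 min, then PAC1 agonist added at its EC80 for 15 min, cAMP accumulation read by LANCE Ultra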
T2 construct: SHSY-5Y (human neuroblastoma cell line) and RG-2 (rat glioma cell line) cells endogenously express human and rat PAC1 receptors, respectively; endogenous in cells; host or cells: RG-2 rat glioma cells
T2 sequence (P32215 20-523): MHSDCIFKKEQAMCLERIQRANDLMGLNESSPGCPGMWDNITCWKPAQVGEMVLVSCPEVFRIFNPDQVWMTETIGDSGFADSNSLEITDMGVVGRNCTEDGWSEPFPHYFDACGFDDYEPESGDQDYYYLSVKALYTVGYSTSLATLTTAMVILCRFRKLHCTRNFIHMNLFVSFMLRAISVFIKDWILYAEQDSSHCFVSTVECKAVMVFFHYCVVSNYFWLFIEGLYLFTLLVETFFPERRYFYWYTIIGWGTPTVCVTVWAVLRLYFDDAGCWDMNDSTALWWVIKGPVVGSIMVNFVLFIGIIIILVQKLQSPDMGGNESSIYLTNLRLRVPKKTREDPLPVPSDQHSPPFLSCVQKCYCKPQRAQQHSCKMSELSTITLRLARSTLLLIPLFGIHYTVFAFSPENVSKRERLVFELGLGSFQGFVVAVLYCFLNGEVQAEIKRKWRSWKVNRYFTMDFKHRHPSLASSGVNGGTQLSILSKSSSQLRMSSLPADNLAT

PAC1 = target: T3, PAC1 (Rattus norvegicus, UniProt P32215); assay: Rat maxadilan-induced increase in blood flow (MIIBF) PD model, laser Doppler imaging; format: in vivo; settings: single bolus s.c., lowest dose of 0.3 mg/kg, 15 min prior to maxadilan, 45 min post peptide treatment
T3 construct: Naive male Sprague Dawley® rats aged 8-12 weeks at the time of the study were purchased from Charles River Laboratories; tissue Charles River Laboratories; host or cells: live male Sprague Dawley rats; dermal blood flow on abdominal skin
T3 sequence (P32215 20-523): T2 sequence (P32215 20-523)
Method: PAC1 peptide antagonists were also evaluated in an in vivo pharmacodynamic model—a model of maxadilan-induced increase in blood flow.
Naive male Sprague Dawley® rats aged 8-12 weeks at the time of the study were purchased from Charles River Laboratories. Animals were group-housed in non-sterile, ventilated micro-isolator housing in Amgen Assessment and Accreditation of Laboratory Animal Committee (AAALAC)-accredited facility. Animals had ad libitum access to pelleted feed (Harlan Teklad 2020X, Indianapolis, IN) and water (on-site generated reverse osmosis) via automatic watering system.
All PAC1 peptides were tested in a rat maxadilan-induced increase in blood flow (MIIBF) pharmacodynamic (PD) model with a laser Doppler imaging. A dosing solution of maxadilan (Bachem, H6734.0500) was prepared fresh daily by diluted maxadilan stock solution (0.5 mg/mL) in 1× PBS to the final concentration of 0.5 μg/mL. All tested peptides were prepared in 1× PBS at different concentrations depend on the dose required for the experiment and given in a single bolus i.v. or s.c. injection. A laser Doppler imager (LDI-2, Moor Instruments, Ltd, Wilmington, Del.) was used to measure dermal blood flow (DBF) on the shaved skin of the rat abdomen with a low-power laser beam generated by a 633 nm helium-neon bulb. The measurement resolution was 0.2 to 2 mm, with scanning distances between the instrument aperture and the tissue surface of 30 cm. In this report, DBF was measured and expressed as % change from baseline [100×(individual post-CAP flux-individual baseline flux)/individual baseline flux] and further calculated to % Inhibition to quantify the magnitude of drug effect [Mean of vehicle % change from BL−individual drug treated rat % change from BL)/Mean of vehicle % change from BL].
On the test day, following anesthetization with propofol, the rat's abdominal area was shaved and each animal was placed in a supine position on a temperature-controlled circulating warm-water pad to maintain a stable body temperature during the study. After a 10 to 15 minute stabilization period, a rubber O-ring (0.925 cm inner diameter, O-Rings West, Seattle, Wash.) was placed on the rat abdomen without directly positioning it over a visible blood vessel while the rat placed in a supine position on a temperature-controlled circulating warm-water pad to maintain a stable body temperature during the study. After placement of an O-ring on the selected area, a baseline (BL) DBF measurement was taken. After the BL scan, PAC1 peptides were administrated either 5 min for i.v., or 15 min for s.c. then followed by 20 μL (in 0.5 μg/mL) intradermal injection of maxadilan at the center of the O-ring. The post-maxadilan DBF was measured at 30 min and the post peptides time was 35 min for i.v. and 45 min for s.c. respectively. The O-ring serves as an area of interest in which the DBF will be analyzed within the O-ring.
All DBF results were expressed as the mean±SEM. A one-way ANOVA followed by Dunnett's Multiple Comparison Test (MCT) was used to assess the statistical significance of PAC1 peptides effects relative to the vehicle within the study. A p<0.05 was used to determine significance between any two groups.

Molecule | IC50 (human PAC1 receptor) | IC50 (rat PAC1 receptor) | inhibition of maxadilan-induced increase in DBF (PAC1)
CC[C@H](C)[C@H](NC(=O)[C@H](C)NC(=O)[C@H](CCCCN)NC(=O)[C@H](CCCNC(=N)N)NC(=O)[C@H](Cc1ccccc1)NC(=O)[C@H](CCC(N)=O)NC(=O)[C@@H]1CSSC[C@H](N)C(=O)N[C@@H](CC(=O)O)C(=O)N[C@@H](C)C(=O)N[C@@H]([C@@H](C)O)C(=O)N1)C(=O)N[C@@H](CC(=O)O)C(=O)N[C@@H](CC(=O)O)C(=O)N[C@H]1CSSC[C@@H](C(=O)N[C@@H](CCSC)C(=O)N[C@@H](CCCCN)C(=O)N[C@@H](CCC(N)=O)C(=O)N[C@@H](CCCCN)C(=O)N[C@@H](CCCCN)C(=O)N[C@@H](CCCCN)C(=O)N[C@@H](CCC(=O)O)C(=O)N[C@@H](Cc2c[nH]c3ccccc23)C(=O)N[C@@H](CCCCN)C(=O)N[C@@H](C)C(=O)NCC(N)=O)NC(=O)[C@H](C)NC(=O)[C@H](CCCCN)NC(=O)[C@H](Cc2ccccc2)NC(=O)[C@H](C(C)C)NC(=O)[C@H](CO)NC(=O)[C@H](CO)NC(=O)[C@H](Cc2c[nH]cn2)NC(=O)[C@H](Cc2ccc(O)cc2)NC(=O)[C@H](C)NC(=O)[C@H](CCC(N)=O)NC(=O)[C@H](CCCNC(=N)N)NC(=O)[C@H](C)NC1=O [SEQ ID NO 65] (H-CDATCQFRKAIDDCARQAYHSSVFKACMKQKKKEWKAG-NH2; disulfide 1-5, 14-27) | 0.01 to 1 nM | 0.01 to 1 nM | statistically significant inhibition
CC[C@H](C)[C@H](NC(=O)[C@H](C)NC(=O)[C@H](CCCCN)NC(=O)[C@H](CCCNC(=N)N)NC(=O)[C@H](Cc1ccccc1)NC(=O)[C@H](CCC(N)=O)NC(=O)[C@@H]1CSSC[C@H](N)C(=O)N[C@@H](CC(=O)O)C(=O)N[C@@H](C)C(=O)N[C@@H]([C@@H](C)O)C(=O)N1)C(=O)N[C@@H](CC(=O)O)C(=O)N[C@@H](CC(=O)O)C(=O)N[C@H]1CSSC[C@@H](C(=O)N[C@@H](CCSC)C(=O)N[C@@H](CCCCN)C(=O)N[C@@H](CCC(N)=O)C(=O)N[C@@H](CCCCN)C(=O)N[C@@H](CCCCN)C(=O)N[C@@H](CCCCN)C(=O)N[C@@H](CCC(=O)O)C(=O)N[C@@H](Cc2c[nH]c3ccccc23)C(=O)N[C@@H](CCCCN)C(=O)N[C@@H](C)C(=O)NCC(N)=O)NC(=O)[C@H](C)NC(=O)[C@H](CCCCN)NC(=O)[C@H](Cc2ccccc2)NC(=O)[C@H](C(C)C)NC(=O)[C@H](CO)NC(=O)[C@H](CO)NC(=O)[C@H](Cc2c[nH]cn2)NC(=O)[C@H](Cc2ccc(O)cc2)NC(=O)[C@H](C)NC(=O)[C@H](CCC(N)=O)NC(=O)[C@H](CCCNC(=N)N)NC(=O)[C@H](CC(=O)O)NC1=O [compound 21] (H-CDATCQFRKAIDDCDRQAYHSSVFKACMKQKKKEWKAG-NH2; disulfide 1-5, 14-27) | 0.01 to 1 nM | 0.01 to 1 nM | 
CDATCQFRKAIDDCQKQAHHSNVPGSVFKACVKQKKKEFKAG-NH2 (disulfide 1-5, 14-31) [compound 142] | 1 to 100 nM | 1 to 100 nM | 
CDATCQFRKAIDDCLWWSQHSNVPGSVFKACMKQKKKEFKAG-NH2 (disulfide 1-5, 14-31) [compound 117] | 0.01 to 1 nM | 0.01 to 1 nM | 
CDATCQFRKAIDDCQKQAHHSNVPGSVFKLCMKQKKKEFKAG-NH2 (disulfide 1-5, 14-31) [compound 226] | 0.01 to 1 nM | 0.01 to 1 nM | 
SDATSQYRKGLVACLYKKVAMQKRYSVFKACMKQKKKEWKAG-NH2 (disulfide 14-31) [compound 426] | 1 to 100 nM | 0.01 to 1 nM | 
CC[C@H](C)[C@H](NC(=O)[C@H](C)NC(=O)[C@H](CCCCN)NC(=O)[C@H](CCCNC(=N)N)NC(=O)[C@H](Cc1ccccc1)NC(=O)[C@H](CCC(N)=O)NC(=O)[C@@H]1CSSC[C@H](N)C(=O)N[C@@H](CC(=O)O)C(=O)N[C@@H](C)C(=O)N[C@@H]([C@@H](C)O)C(=O)N1)C(=O)N[C@@H](CC(=O)O)C(=O)N[C@@H](CC(=O)O)C(=O)N[C@H]1CSSC[C@@H](C(=O)N[C@@H](CCSC)C(=O)N[C@@H](CCCCN)C(=O)N[C@@H](CCC(N)=O)C(=O)N[C@@H](CCCCN)C(=O)N[C@@H](CCCCN)C(=O)N[C@@H](CCCCN)C(=O)N[C@@H](CCC(=O)O)C(=O)N[C@@H](Cc2ccccc2)C(=O)N[C@@H](CCCCN)C(N)=O)NC(=O)[C@H](CCC(=O)O)NC(=O)[C@H](CCCCN)NC(=O)[C@H](Cc2ccccc2)NC(=O)[C@H](CO)NC(=O)[C@H](CC(N)=O)NC(=O)[C@H](CO)NC(=O)[C@H](Cc2c[nH]cn2)NC(=O)[C@H](Cc2c[nH]cn2)NC(=O)[C@H](C)NC(=O)[C@H](CCC(N)=O)NC(=O)[C@H](CCCCN)NC(=O)[C@H](CCC(N)=O)NC1=O [compound 224] (H-CDATCQFRKAIDDCQKQAHHSNSFKECMKQKKKEFK-NH2; disulfide 1-5, 14-27) | 0.01 to 1 nM | 1 to 100 nM | 
CDATCQFRKAIDDCQKQAHHSNVPGSVFKACMLQKKKEFKAG-NH2 (disulfide 1-5, 14-31) [compound 103] | 1 to 100 nM | 0.01 to 1 nM | 
CC[C@H](C)[C@H](NC(=O)[C@H](C)NC(=O)[C@H](CCCCN)NC(=O)[C@H](CCCNC(=N)N)NC(=O)[C@H](Cc1ccccc1)NC(=O)[C@H](CCC(N)=O)NC(=O)[C@@H]1CSSC[C@H](N)C(=O)N[C@@H](CC(=O)O)C(=O)N[C@@H](C)C(=O)N[C@@H]([C@@H](C)O)C(=O)N1)C(=O)N[C@@H](CC(=O)O)C(=O)N[C@@H](CC(=O)O)C(=O)N[C@H]1CSSC[C@@H](C(=O)N[C@@H](CCSC)C(=O)N[C@@H](CCCCN)C(=O)N[C@@H](CCC(N)=O)C(=O)N[C@@H](CCCCN)C(=O)N[C@@H](CCCCN)C(=O)N[C@@H](CCCCN)C(=O)N[C@@H](CCC(=O)O)C(=O)N[C@@H](Cc2c[nH]c3ccccc23)C(=O)N[C@@H](CCCCN)C(=O)N[C@@H](C)C(=O)NCC(=O)N[C@@H](Cc2c[nH]cn2)C(=O)O)NC(=O)[C@H](C)NC(=O)[C@H](CCCCN)NC(=O)[C@H](Cc2ccccc2)NC(=O)[C@H](C(C)C)NC(=O)[C@H](CO)NC(=O)[C@H](CO)NC(=O)[C@H](Cc2c[nH]cn2)NC(=O)[C@H](Cc2c[nH]cn2)NC(=O)[C@H](C)NC(=O)[C@H](CCC(N)=O)NC(=O)[C@H](CCCCN)NC(=O)[C@H](C)NC1=O [compound 26] (H-CDATCQFRKAIDDCAKQAHHSSVFKACMKQKKKEWKAGH-OH; disulfide 1-5, 14-27) | 0.01 to 1 nM | 0.01 to 1 nM | 
